In patent publication US11203608B2, “Platinum-containing compounds, and related compositions and uses thereof” (Massachusetts Institute of Technology, priority 2019, dated 2021):

Tests used:
[1] = test system: A2780 human ovarian cancer cell line; assay: Cell growth, resazurin assay, A2780; type: cell-based; settings: A2780, 72-h exposure
Procedure: (§1) Cells were cultured in 10 mL of Advanced DMEM/F12 (ADMEM/F12), supplemented with 5% FBS, 2 mM GlutaMAX, and 1% Penicillin-Streptomycin in 10 cm tissue culture plates. Cells were then plated into 96-well plates with about 2.5×10^3 cells per well. Cells were plated with 200 μL per well of ADMEM/F12 supplemented with 5% FBS, 2 mM GlutaMAX, and 1% Penicillin-Streptomycin. Cells were treated with dose responses of doxorubicin, oxaliplatin, or doxaliplatin upon plating. The cells were then cultured for 72 hours following drug treatment, and cell growth was measured by resazurin assay.

[2] = test system: doxorubicin-resistant A2780ADR human ovarian cancer cell line; assay: Cell growth, resazurin assay, A2780ADR; type: cell-based; settings: 72-h exposure
Procedure: as §1

[3] = Solubility and stability in organic solvents (observed during NMR); type: physicochemical
Procedure: To a stirred solution of K2PtCl4 (41.5 mg, 0.100 mmol) in water (30 mL), a solution of 9 bis(trifluoroacetic acid) salt (77.0 mg, 0.100 mmol) in water (9 mL) was added in one portion. Red precipitate formed immediately. The reaction was stirred at room temperature for 24 h. To the same solution was added AgNO3 aq. solution (0.10 M, 4.0 mL). The reaction was stirred at room temperature for 24 h. To this mixture was then added K2C2O4 aq. solution (0.20 M, 0.50 mL). The reaction was stirred at room temperature for 24 h. The reaction mixture was lyophilized together with a small amount of C18-reversed phase silica gel. […] The multiplicity of some ^1H NMR signals were not determined due to overlap. […] Due to the relatively low concentration of 12 in […], only part of the ^13C NMR signals were detected through ^13C-^1H correlation experiments. The ^13C NMR signals of Conformer A detected by ^1H-^13C HSQC and ^1H-^13C HMBC spectroscopy: ^13C{^1H} NMR (101 MHz, DMSO-d6) δ 16.98, 31.68, 34.80, 37.89, 55.85, 56.35, 64.07, 65.27, 66.70, 68.15, 98.84, 118.56, 118.86, 134.84, 159.78. The ^13C NMR signals of Conformer B detected by ^1H-^13C HSQC and ^1H-^13C HMBC spectroscopy: ^13C{^1H} NMR (101 MHz, DMSO-d6) δ 17.24, 32.01, 36.73, 37.27, 56.13, 56.31, 63.56, 64.07, 68.53, 69.85, 99.05, 118.68, 118.84, 135.99, 160.62. ^195Pt NMR (86 MHz, DMSO-d6) δ−1989 (br). […]

[4] = test system: A2780 human ovarian cancer cell line
Procedure: ICP-MS was performed on an Agilent 7900 ICP-MS in helium mode.
The cells in a six-well plate were treated with oxaliplatin, doxaliplatin, or a mixture of doxorubicin and oxaliplatin at indicated concentration in 2 mL of Advanced DMEM/F12 (ADMEM/F12), supplemented with 5% FBS, 2 mM GlutaMAX, and 1% Penicillin-Streptomycin. After three hours, the media were removed. The cells were washed with xl PBS buffer containing EDTA (100 μM, 4 mL×2). To each well, MilliQ water (1.0 mL) was added. After 15 min, the cells were suspended. A portion of the resulting cell lysate (900 μL) was transferred to an Eppendorf tube. The samples were frozen in liquid nitrogen and thawed at room temperature. This procedure was repeated for three times. The insoluble lysate was pelleted (10000 rpm for 10 min). […] Pierce 660 nm Protein solution (200 μL) was added to each well. An aliquot of the lysate (14.2 μL) was added to each well. The plate was shaken and read on a plate reader. The remaining samples were frozen at liquid nitrogen temperature and lyophilized. The dried material was digested with Aristar® ultrapure concentrated nitric acid (70%) at 70° C. for one hour. An aliquot of this solution (142 μL) was mixed with molecular biology grade water (2000 μL) and a terbium internal standard (40 μL, 100 ppb). The platinum content was then determined using an Agilent 7900 ICP-MS in helium mode. The concentration of platinum in the cells was normalized to measured protein concentration described above.

IC50 [1]: 16 nM
IC90 [1]: 380 nM
IC50 [2]: 72 nM
IC90 [2]: 490 nM
Solubility in DMF ([3]; DMF): low solubility
Solubility in DMSO-d6 ([3]; DMSO-d6): relatively high solubility
SMILES: COc1cccc2c1C(=O)c1c(O)c3c(c(O)c1C2=O)CC(O)(C(=O)CO)CC3OC1CC(N)C(N)C(C)O1.O=C1[O][Pt][O]C1=O (stereo not drawn) [DoxPt, Doxaliplatin]
IC95 [1]: 680 nM
IC95 [2]: 670 nM
Platinum concentration in treated cells relative to oxaliplatin-treated cells [4]: approximately ten times higher than in oxaliplatin-treated cells
